System: ATF4 luciferase reporter in HEK293T cells
Assay: ATF4-Luc assay (ATF4 luciferase reporter, tunicamycin-treated HEK293T cells)
Format: cell-based, human
Conditions: Homo sapiens, HEK-293T; HEK293T cells carrying the ATF4 luciferase reporter, 1 μg/mL tunicamycin, 7 hours

Q: For `O=C(COc1ccc(Cl)c(F)c1)NC12CC(NS(=O)(=O)Cc3ccc(F)cc3)(C1)C2` [Compound 487, 2-(4-chloro-3-fluorophenoxy)-N-(3-{[(4-fluorophenyl)methanesulfonyl]amino}bicyclo[1.1.1]pentan-1-yl)acetamide], which EC50 is on record?
A: > 2000 nM

Q: Which EC50 does the source give for `O=C(COc1ccc(Cl)c(F)c1)NC12CC(NC(=O)[C@H](O)c3ccc(Cl)cc3)(C1)C2` [Compound 315, (2R)—N-{3-[2-(4-chloro-3-fluorophenoxy)acetamido]bicyclo[1.1.1]pentan-1-yl}-2-(4-chlorophenyl)-2-hydroxyacetamide] here?
A: 500 to 2000 nM

Q: With `COC(=O)[C@H]1CC2(NC(=O)COc3ccc(Cl)c(F)c3)CCC1(NC(=O)COc1ccc(Cl)c(F)c1)CC2` [Compound 562, methyl (2S)-1,4-bis[2-(4-chloro-3-fluorophenoxy)acetamido]bicyclo[2.2.2]octane-2-carboxylate] as the compound, how does the EC50 read?
A: < 10 nM

Q: How did the EC50 turn out when `O=C(COc1ccc(Cl)c(F)c1)NC12CCC(NC(=O)COc3noc4ccccc34)(CC1)[C@@H](O)C2` [Compound 515, 2-[(1,2-benzoxazol-3-yl)oxy]-N-{(2S)-4-[2-(4-chloro-3-fluorophenoxy)acetamido]-2-hydroxybicyclo[2.2.2]octan-1-yl}acetamide] was run?
A: < 10 nM

Q: For `CC(=O)NC1CC2(NC(=O)COc3ccc(Cl)c(F)c3)CCC1(NC(=O)COc1ccc(Cl)c(F)c1)CC2` (centres unmarked) [Compound 358, N,N′-(2-acetamidobicyclo[2.2.2]octane-1,4-diyl)bis[2-(4-chloro-3-fluorophenoxy)acetamide]], which EC50 is on record?
A: < 10 nM

Q: `O=C(COc1ccc(Cl)c(F)c1)N[C@@H]1[C@@H]2CC[C@@](NC(=O)COc3ccc(Cl)c(F)c3)(C2)C[C@@H]1O` (racemic) [Compound 638, rac-N,N′-[(1R,3S,4R,5R)-3-hydroxybicyclo[3.2.1]octane-1,4-diyl]bis[2-(4-chloro-3-fluorophenoxy)acetamide]] was tested. Which EC50 did it give?
A: < 10 nM

Q: Which EC50 does the source give for `O=C(COCCc1cccc(Cl)c1)NC12CC(NC(=O)COc3ccc(Cl)c(Cl)c3)(C1)C2` [Compound 151, 2-[2-(3-chlorophenyl)ethoxy]-N-{3-[2-(3,4-dichlorophenoxy)acetamido]-bicyclo[1.1.1]pentan-1-yl}acetamide] here?
A: < 10 nM

Q: For `N#Cc1ccc(COCC(=O)NC23CC(NC(=O)COc4ccc(Cl)c(F)c4)(C2)C3)cc1` [Compound 139, 2-(4-chloro-3-fluorophenoxy)-N-(3-{2-[(4-cyanophenyl)methoxy]acetamido}-bicyclo[1.1.1]pentan-1-yl)acetamide], which EC50 is on record?
A: 250 to 500 nM

Q: `O=C(COc1ccc(F)c(F)c1)NC12CCC(NC(=O)COc3ccc(F)c(OC(F)F)c3)(CC1)[C@@H](O)C2` [Compound 796, 2-[3-(difluoromethoxy)-4-fluorophenoxy]-N-{(2S)-4-[2-(3,4-difluorophenoxy)acetamido]-2-hydroxybicyclo[2.2.2]octan-1-yl}acetamid6] was tested. Which EC50 did it give?
A: 10 to 50 nM

Q: How did the EC50 turn out when `O=C1COc2c(cc(Cl)cc2OCC(=O)NC23CCC(NC(=O)COc4ccc(Cl)c(F)c4)(CC2)[C@@H](O)C3)N1` [Compound 754, 2-(4-chloro-3-fluorophenoxy)-N-[(2S)-4-{2-[(6-chloro-3-oxo-3,4-dihydro-2H-1,4-benzoxazin-8-yl)oxy]acetamido}-2-hydroxybicyclo[2.2.2]octan-1-yl]acetamide] was run?
A: > 2000 nM

Q: `O=C(COc1ccc(Cl)c(F)c1)NC12CC(NC(=O)COc3ccc(Cl)c(CO)c3)(C1)C2` [Compound 224, 2-(4-chloro-3-fluorophenoxy)-N-(3-{2-[4-chloro-3-(hydroxymethyl)phenoxy]-acetamido}bicyclo[1.1.1]pentan-1-yl)acetamide] was tested. Which EC50 did it give?
A: 50 to 250 nM

Q: Which EC50 does the source give for `O=C(COc1ccc(S(F)(F)(F)(F)F)cc1)NC12CC(NC(=O)COc3ccc4c(c3)OC(F)(F)O4)(C1)C2` [Compound 278, 2-[(2,2-difluoro-2H-1,3-benzodioxol-5-yl)oxy]-N-(3-{2-[4-(pentafluoro-λ^6-sulfanyl)phenoxy]acetamido}bicyclo[1.1.1]pentan-1-yl)acetamide] here?
A: 10 to 50 nM

Q: Which EC50 does the source give for `O=C(COc1ccc(OC(F)(F)F)cc1)NC12CCC(NC(=O)COc3ccc(OC(F)(F)F)cc3)(CC1)[C@@H](O)C2` [Compound 785, N,N′-[(2S)-2-hydroxybicyclo[2.2.2]octane-1,4-diyl]bis{2-[4-(trifluoromethoxy)phenoxy]acetamide}] here?
A: 50 to 250 nM

Q: Which EC50 does the source give for `O=C(COc1ccc(Cl)c(F)c1)NC12CCC(NC(=O)COc3ccc(OC(F)(F)F)c(F)c3)(CC1)[C@@H](O)C2` [Compound 750, 2-(4-chloro-3-fluorophenoxy)-N-[(3S)-4-{2-[3-fluoro-4-(trifluoromethoxy)phenoxy]acetamido}-3-hydroxybicyclo[2.2.2]octan-1-yl]acetamide] here?
A: < 10 nM

Q: How did the EC50 turn out when `O=C(COc1ccccn1)NC12CCC(NC(=O)COc3cccc(Cl)c3)(CC1)[C@@H](O)C2` [Compound 662, 2-(3-chlorophenoxy)-N-[(2S)-2-hydroxy-4-{2-[(pyridin-2-yl)oxy]acetamido}bicyclo[2.2.2]octan-1-yl]acetamide] was run?
A: 250 to 500 nM

Q: For `N#Cc1ccc(COCC(=O)NC23CC(NC(=O)COc4ccc(Cl)c(Cl)c4)(C2)C3)cc1` [Compound 159, 2-[(4-cyanophenyl)methoxy]-N-{3-[2-(3,4-dichlorophenoxy)acetamido]-bicyclo[1.1.1]pentan-1-yl}acetamide], which EC50 is on record?
A: 50 to 250 nM

Q: For `O=C(COc1cccc(C(F)(F)F)c1)NC12CCC(NC(=O)COc3ccc(Cl)c(F)c3)(CC1)[C@@H](O)C2` [Compound 466, 2-(4-chloro-3-fluorophenoxy)-N-[(2S)-2-hydroxy-4-{2-[3-(trifluoromethyl)phenoxy]acetamido}bicyclo[2.2.2]octan-1-yl]acetamide], which EC50 is on record?
A: < 10 nM

Q: How did the EC50 turn out when `O=C(COc1ccc(Cl)c(F)c1)NC12CC(NC(=O)COc3cc(F)c4cn[nH]c4c3)(C1)C2` [Compound 111, 2-(4-chloro-3-fluorophenoxy)-N-(3-{2-[(4-fluoro-1H-indazol-6-yl)oxy]acetamido}-bicyclo[1.1.1]pentan-1-yl)acetamide] was run?
A: < 10 nM

Q: For `COc1cc(Cl)ccc1OCC(=O)NC12CCC(NC(=O)COc3ccc(Cl)c(F)c3)(CC1)[C@@H](O)C2` [Compound 793, 2-(4-chloro-3-fluorophenoxy)-N-{(2S)-4-[2-(4-chloro-2-methoxyphenoxy)acetamido]-2-hydroxybicyclo[2.2.2]octan-1-yl}acetamide], which EC50 is on record?
A: < 10 nM

Q: With `O=C(COc1ccc(F)c(F)c1)NC12CCC(NC(=O)COc3ccc(Cl)cc3)(CC1)[C@@H](O)C2` [Compound 813, 2-(4-chlorophenoxy)-N-{(2S)-4-[2-(3,4-difluorophenoxy)acetamido]-2-hydroxybicyclo[2.2.2]octan-1-yl}acetamide] as the compound, how does the EC50 read?
A: < 10 nM

Q: With `O=C(COc1ccc(Cl)c(F)c1)NC12CCC(NC(=O)COc3ccc(Cl)cn3)(CC1)[C@@H](O)C2` [Compound 640, 2-(4-chloro-3-fluorophenoxy)-N-[(3S)-4-{2-[(5-chloropyridin-2-yl)oxy]acetamido}-3-hydroxybicyclo[2.2.2]octan-1-yl]acetamide] as the compound, how does the EC50 read?
A: < 10 nM

Q: How did the EC50 turn out when `O=C(COc1ccc(F)cc1)NC12CCC(NC(=O)COc3ccc(Cl)c(F)c3)(CC1)C(O)C2` (centres unmarked) [Compound 330, 2-(4-chloro-3-fluorophenoxy)-N-{4-[2-(4-fluorophenoxy)acetamido]-2-hydroxybicyclo[2.2.2]octan-1-yl}acetamide] was run?
A: < 10 nM

Q: How did the EC50 turn out when `Cc1ccc(COCC(=O)NC23CC(NC(=O)COc4ccc(Cl)c(Cl)c4)(C2)C3)cc1` [Compound 160, 2-(3,4-dichlorophenoxy)-N-(3-{2-[(4-methylphenyl)methoxy]-acetamido}bicyclo[1.1.1]pentan-1-yl)acetamide] was run?
A: 50 to 250 nM

Q: How did the EC50 turn out when `O=C(COc1ccc(Cl)c(F)c1)NC12CC(NC(=O)OCCCc3cccc(Cl)c3)(C1)C2` [Compound 166, 3-(3-chlorophenyl)propyl {3-[2-(4-chloro-3-fluorophenoxy)acetamido]-bicyclo[1.1.1]pentan-1-yl}carbamate] was run?
A: 250 to 500 nM

Q: `Cc1cccc(COCC(=O)NC23CC(NC(=O)COc4ccc(Cl)c(Cl)c4)(C2)C3)n1` [Compound 153, 2-(3,4-dichlorophenoxy)-N-(3-{2-[(6-methylpyridin-2-yl)methoxy]acetamido}bicyclo[1.1.1]pentan-1-yl)acetamide] was tested. Which EC50 did it give?
A: 50 to 250 nM

Q: For `CC(C)(C)c1ccc(OCC(=O)NC23CCC(NC(=O)COc4ccc(Cl)c(F)c4)(CC2)C[C@@H]3O)cc1` [Compound 506, 2-(4-tert-butylphenoxy)-N-{(2S)-4-[2-(4-chloro-3-fluorophenoxy)acetamido]-2-hydroxybicyclo[2.2.2]octan-1-yl}acetamide], which EC50 is on record?
A: 250 to 500 nM

Q: With `Cc1cc(OCC(=O)NC23CC(NC(=O)COc4ccc(Cl)c(F)c4)(C2)C3)cnc1C#N` [Compound 242, 2-(4-chloro-3-fluorophenoxy)-N-(3-{2-[(6-cyano-5-methylpyridin-3-yl)oxy]acetamido}bicyclo[1.1.1]pentan-1-yl)acetamide] as the compound, how does the EC50 read?
A: 10 to 50 nM

Q: `O=C(COc1cccc(C(F)(F)F)n1)NC12CCC(NC(=O)COc3ccc(Cl)cc3)(CC1)[C@@H](O)C2` [Compound 825, 2-(4-chlorophenoxy)-N-[(2S)-2-hydroxy-4-(2-{[6-(trifluoromethyl)pyridin-2-yl]oxy}acetamido)bicyclo[2.2.2]octan-1-yl]acetamide] was tested. Which EC50 did it give?
A: 50 to 250 nM

Q: With `CC(C)(O)c1ccc(OCC(=O)NC23CC(NC(=O)COc4ccc(Cl)c(Cl)c4)(C2)C3)cc1` [Compound 422, 2-(3,4-dichlorophenoxy)-N-(3-{2-[4-(2-hydroxypropan-2-yl)phenoxy]acetamido}bicyclo[1.1.1]pentan-1-yl)acetamide] as the compound, how does the EC50 read?
A: 250 to 500 nM

Q: `O=C(COc1ccc(Cl)cc1)NC12CCC(NC(=O)COc3ccc(F)c(Cl)c3)(CC1)CC2` [Compound 743, 2-(3-chloro-4-fluorophenoxy)-N-{4-[2-(4-chlorophenoxy)acetamido]bicyclo[2.2.2]octan-1-yl}acetamide] was tested. Which EC50 did it give?
A: < 10 nM

Q: How did the EC50 turn out when `Cc1cccc(OCC(=O)NC23CC(NC(=O)COc4ccc(Cl)cc4)(C2)C3)c1` [Compound 114, 2-(4-chlorophenoxy)-N-{3-[2-(3-methylphenoxy)acetamido]bicyclo[1.1.1]-pentan-1-yl}acetamide] was run?
A: 10 to 50 nM

Q: `O=C(COc1ccc(Cl)c(F)c1)NC12CCC(NC(=O)COc3ccc(F)c(OC(F)F)c3)(CC1)[C@@H](O)C2` [Compound 795, 2-(4-chloro-3-fluorophenoxy)-N-[(3S)-4-{2-[3-(difluoromethoxy)-4-fluorophenoxy]acetamido}-3-hydroxybicyclo[2.2.2]octan-1-yl]acetamide] was tested. Which EC50 did it give?
A: < 10 nM
